Assay results taken from patent US8999944B2, “Thioredoxin interacting protein (TXNIP) as regulator of vascular function” (University of Rochester, priority 2005, dated 2015).

Tested on: VCAM1
Experiment: TNF-induced VCAM1 expression in HUVEC (immunoblotting)
Type: cell-based, human
Conditions: for TNF-induced VCAM1 expression: inhibitor at 30 μM
Description: FIG. […] VCAM-1 expression was determined by immunoblotting from 3 independent experiments. Equal protein loading was confirmed with actin antibody.
To knockdown TXNIP, HUVEC were treated with small interference RNA (siRNA) against human TXNIP coding region. The target sequences were: 5′-AAGCCGTTAGGATCCTGGCTT (SEQ ID NO: 1) for human TXNIP and 5′-AATTCTCCGAACGTGTCACGT-3′ (SEQ ID NO: 2) for control non-silencing siRNA, respectively (Qiagen-Xeragon). HUVEC at >90% confluence in 60-mm dishes were used for transfection. […] This mixture was added to HUVEC in normal culture media (2 ml) and cells were incubated for 1.5 h. The medium was changed and cells recovered for 24 h. The transfection was repeated and after 24 h, cells were used for experiments.
I.P. and I.B. experiments were performed as described previously (Surapisitchat et al., “Fluid Shear Stress Inhibits TNF-Alpha Activation of JNK but not ERK½ or p38 in Human Umbilical Vein Endothelial Cells: Inhibitory Crosstalk Among MAPK Family Members,” Proc Natl Acad Sci USA 98:6476-6481 (2001); Liu et al., “Laminar Flow Inhibits TNF-Induced ASK1 Activation by Preventing Dissociation of ASK1 From its Inhibitor 14-3-3,” J Clin Invest 107:917-923 (2001); Yamawaki et al., “Chronic Physiological Shear Stress Inhibits Tumor Necrosis Factor-Induced Proinflammatory Responses in Rabbit Aorta Perfused ex vivo,” Circulation 108:1619-1625 (2003), each of which is hereby incorporated by reference in its entirety). The resulting autoradiograms were analyzed with NIH Image 1.60. Experiments were performed at least three times and equal loading of protein was ensured by measuring actin expression.

Row | SMILES | TNF-induced VCAM1 expression | effect on VCAM1 expression (inhibitor at 10 μM, n=4)
1 | COc1cccc(-c2cc(=O)c3ccccc3o2)c1N [PD98059] | not | –
2 | C[S+]([O-])c1ccc(-c2nc(-c3ccncc3)c(-c3ccc(F)cc3)[nH]2)cc1 (stereo not drawn) [SB203580] | almost completely blocked | –
3 | Oc1c2ccccc2c2c3c(cccc13)N=N2 [SP600125] | – | no effect
